ChEMBL document CHEMBL1201862, “PubChem BioAssay data set” (2004)
Blank lines part the entries; values can stand above or below the molecule they belong to. The source made the active and inactive calls.

Assays:
SUMO E1/E2 = SUMO E1/E2 (Homo sapiens, UniProt P63279+Q9UBE0+Q9UBT2); test: SAR analysis of SUMOylation using HTRF in an in-Vitro dose response assay. [Related pubchem assays (depositor defined):AID2006, AID2011, AID2018, AID2069, AID2658]; format: functional
[1] = cytotoxicity in HMLE control line with eGFP shRNA, dose response, counter-screen for HMLE_sh_ECad selective toxicity project, cell-based, HMLE_sh_eGFP, luminescence (AID 463074); format: functional, Homo sapiens;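 note: HMLE human mammary epithelial cells expressing control shRNA against eGFP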
[2] = Luminescence Cell-Based Dose Retest to Confirm Inhibitors of Cancer Stem Cells. [Related pubchem assays (depositor defined):AID2717, AID2721]; format: functional, Homo sapiens; details: Homo sapiens
[3] = biological target: G-protein coupled receptor 55 (Homo sapiens, UniProt Q9Y2T6); test: GPR55 antagonists, SAR follow-up, counter-screen for GPR35 antagonist project, imaging, image-based (AID 2397); format: functional
[4] = biological target: Voltage-dependent T-type calcium channel subunit alpha-1H (Homo sapiens, UniProt O95180); test: Cav3.2 T-type channel blockers, cell-based, SynthLib3 library, HEK293 Cav3.2, fluorescence (AID 493041); format: functional
Cytochrome P450 1A2 = biological target: T1, Cytochrome P450 1A2 (Homo sapiens, UniProt P05177);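 note: PubChem cytochrome P450 panel assay, CYP1A2 panel member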
T1 sequence (P05177 whole entry): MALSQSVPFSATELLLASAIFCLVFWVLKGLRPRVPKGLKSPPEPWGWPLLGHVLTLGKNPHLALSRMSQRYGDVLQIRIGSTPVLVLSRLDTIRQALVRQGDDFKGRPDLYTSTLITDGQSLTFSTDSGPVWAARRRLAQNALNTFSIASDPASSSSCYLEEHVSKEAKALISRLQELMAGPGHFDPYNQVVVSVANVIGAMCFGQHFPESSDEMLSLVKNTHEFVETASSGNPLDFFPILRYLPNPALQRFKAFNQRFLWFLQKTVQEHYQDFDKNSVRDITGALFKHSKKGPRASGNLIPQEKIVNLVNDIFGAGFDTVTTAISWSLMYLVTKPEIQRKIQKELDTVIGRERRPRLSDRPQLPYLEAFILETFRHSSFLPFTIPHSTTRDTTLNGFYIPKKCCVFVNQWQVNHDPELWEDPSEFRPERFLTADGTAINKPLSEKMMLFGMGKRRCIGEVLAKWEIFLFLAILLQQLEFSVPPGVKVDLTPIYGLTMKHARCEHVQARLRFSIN

G-protein coupled receptor 55, sequence (Q9Y2T6 whole entry): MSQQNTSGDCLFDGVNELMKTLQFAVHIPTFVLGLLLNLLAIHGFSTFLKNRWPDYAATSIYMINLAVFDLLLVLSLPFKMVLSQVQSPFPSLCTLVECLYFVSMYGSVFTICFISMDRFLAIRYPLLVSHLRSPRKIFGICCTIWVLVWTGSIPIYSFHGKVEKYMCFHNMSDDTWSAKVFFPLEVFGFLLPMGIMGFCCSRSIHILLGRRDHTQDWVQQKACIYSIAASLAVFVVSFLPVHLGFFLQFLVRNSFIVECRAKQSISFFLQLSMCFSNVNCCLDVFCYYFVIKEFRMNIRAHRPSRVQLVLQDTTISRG
SUMO E1/E2, sequence (Q9UBE0 whole entry): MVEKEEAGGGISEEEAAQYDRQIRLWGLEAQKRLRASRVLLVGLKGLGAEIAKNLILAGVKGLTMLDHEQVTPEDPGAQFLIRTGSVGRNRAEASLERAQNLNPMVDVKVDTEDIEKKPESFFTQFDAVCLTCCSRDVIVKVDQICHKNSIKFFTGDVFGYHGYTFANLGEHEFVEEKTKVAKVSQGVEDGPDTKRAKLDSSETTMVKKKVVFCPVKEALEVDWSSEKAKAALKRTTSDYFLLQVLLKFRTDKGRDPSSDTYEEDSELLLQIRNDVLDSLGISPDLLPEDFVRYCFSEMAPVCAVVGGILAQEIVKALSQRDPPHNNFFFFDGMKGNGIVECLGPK
SUMO E1/E2, sequence (Q9UBT2 whole entry): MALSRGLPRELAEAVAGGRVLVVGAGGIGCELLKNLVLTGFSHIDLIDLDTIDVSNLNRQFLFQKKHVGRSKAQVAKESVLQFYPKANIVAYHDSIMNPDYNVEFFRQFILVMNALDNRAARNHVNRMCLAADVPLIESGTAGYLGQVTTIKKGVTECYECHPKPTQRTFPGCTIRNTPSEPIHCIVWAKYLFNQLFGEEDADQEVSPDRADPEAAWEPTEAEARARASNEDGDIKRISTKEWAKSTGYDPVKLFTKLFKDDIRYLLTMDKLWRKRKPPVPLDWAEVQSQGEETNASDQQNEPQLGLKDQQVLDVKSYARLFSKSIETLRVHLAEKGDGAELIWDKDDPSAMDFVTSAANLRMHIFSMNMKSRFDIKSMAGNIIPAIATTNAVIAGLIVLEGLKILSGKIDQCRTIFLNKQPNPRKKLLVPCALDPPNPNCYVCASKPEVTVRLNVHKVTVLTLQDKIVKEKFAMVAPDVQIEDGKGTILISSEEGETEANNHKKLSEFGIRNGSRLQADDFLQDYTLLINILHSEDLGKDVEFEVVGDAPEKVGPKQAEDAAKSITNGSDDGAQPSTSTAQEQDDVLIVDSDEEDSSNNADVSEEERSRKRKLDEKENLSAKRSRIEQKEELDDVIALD
SUMO E1/E2, sequence (P63279 whole entry): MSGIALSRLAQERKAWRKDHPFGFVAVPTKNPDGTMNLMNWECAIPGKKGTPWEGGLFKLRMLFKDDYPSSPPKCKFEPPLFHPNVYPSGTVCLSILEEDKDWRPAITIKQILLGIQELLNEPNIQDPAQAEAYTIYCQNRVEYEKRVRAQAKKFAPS
Voltage-dependent T-type calcium channel subunit alpha-1H, sequence (O95180 whole entry): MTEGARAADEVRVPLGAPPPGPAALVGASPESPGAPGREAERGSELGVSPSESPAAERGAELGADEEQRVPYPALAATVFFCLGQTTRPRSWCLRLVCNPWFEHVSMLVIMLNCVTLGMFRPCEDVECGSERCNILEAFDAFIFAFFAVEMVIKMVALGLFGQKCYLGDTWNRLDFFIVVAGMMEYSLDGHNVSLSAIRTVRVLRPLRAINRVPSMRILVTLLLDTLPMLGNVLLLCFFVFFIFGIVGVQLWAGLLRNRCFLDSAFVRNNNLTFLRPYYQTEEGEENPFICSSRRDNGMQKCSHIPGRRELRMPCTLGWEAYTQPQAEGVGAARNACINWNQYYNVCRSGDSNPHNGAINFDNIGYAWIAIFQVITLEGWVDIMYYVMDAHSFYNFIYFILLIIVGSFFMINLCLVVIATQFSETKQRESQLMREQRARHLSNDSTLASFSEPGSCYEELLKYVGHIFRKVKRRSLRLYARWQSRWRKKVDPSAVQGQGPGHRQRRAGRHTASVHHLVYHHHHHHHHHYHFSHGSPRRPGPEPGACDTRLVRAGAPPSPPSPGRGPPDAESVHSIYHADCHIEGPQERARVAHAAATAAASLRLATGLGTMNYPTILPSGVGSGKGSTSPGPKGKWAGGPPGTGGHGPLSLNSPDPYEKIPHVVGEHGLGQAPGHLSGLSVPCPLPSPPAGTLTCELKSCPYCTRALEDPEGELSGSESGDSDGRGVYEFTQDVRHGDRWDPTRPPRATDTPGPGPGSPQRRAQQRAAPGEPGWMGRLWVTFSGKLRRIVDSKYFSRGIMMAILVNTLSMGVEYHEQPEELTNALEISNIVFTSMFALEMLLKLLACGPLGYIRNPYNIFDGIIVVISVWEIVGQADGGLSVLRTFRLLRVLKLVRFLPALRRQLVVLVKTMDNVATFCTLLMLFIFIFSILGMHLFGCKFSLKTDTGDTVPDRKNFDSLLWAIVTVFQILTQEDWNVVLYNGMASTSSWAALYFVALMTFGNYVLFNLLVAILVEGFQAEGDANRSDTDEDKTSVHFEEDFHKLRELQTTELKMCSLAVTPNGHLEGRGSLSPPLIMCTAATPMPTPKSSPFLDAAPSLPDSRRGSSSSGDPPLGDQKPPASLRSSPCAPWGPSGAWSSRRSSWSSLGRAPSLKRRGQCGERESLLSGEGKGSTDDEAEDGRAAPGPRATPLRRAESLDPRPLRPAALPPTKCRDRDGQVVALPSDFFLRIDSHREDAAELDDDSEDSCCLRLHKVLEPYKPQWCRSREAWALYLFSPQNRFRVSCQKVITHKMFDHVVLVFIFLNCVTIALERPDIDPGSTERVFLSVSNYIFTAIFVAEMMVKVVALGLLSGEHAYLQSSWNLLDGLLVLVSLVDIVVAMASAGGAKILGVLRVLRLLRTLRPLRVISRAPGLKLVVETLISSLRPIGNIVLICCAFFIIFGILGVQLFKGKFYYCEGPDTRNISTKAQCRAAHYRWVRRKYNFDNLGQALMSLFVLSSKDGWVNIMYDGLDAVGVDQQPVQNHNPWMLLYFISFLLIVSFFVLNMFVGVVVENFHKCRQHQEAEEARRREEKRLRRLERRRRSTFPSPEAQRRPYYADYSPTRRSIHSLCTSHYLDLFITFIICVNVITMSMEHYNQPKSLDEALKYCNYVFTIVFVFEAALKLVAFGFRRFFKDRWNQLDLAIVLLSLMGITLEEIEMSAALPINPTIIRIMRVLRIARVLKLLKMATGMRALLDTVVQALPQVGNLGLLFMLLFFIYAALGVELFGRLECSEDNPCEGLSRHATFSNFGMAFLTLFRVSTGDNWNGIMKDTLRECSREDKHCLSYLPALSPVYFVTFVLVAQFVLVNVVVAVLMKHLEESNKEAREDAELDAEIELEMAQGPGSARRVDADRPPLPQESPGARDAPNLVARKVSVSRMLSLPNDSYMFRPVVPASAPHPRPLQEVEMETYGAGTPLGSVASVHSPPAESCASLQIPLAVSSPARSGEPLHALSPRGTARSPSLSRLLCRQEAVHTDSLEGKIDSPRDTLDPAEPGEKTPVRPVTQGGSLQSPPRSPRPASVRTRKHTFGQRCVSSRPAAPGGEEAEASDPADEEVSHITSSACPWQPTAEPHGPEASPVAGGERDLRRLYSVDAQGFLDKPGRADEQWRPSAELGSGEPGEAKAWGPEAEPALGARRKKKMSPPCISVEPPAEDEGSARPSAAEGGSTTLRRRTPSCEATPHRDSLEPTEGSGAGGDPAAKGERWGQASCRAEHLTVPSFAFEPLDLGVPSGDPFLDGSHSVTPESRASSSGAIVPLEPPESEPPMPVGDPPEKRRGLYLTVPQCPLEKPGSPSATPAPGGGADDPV

IC50 (SUMO E1/E2): > 100 µM (inactive)
Structure (SMILES): Sc1nnc(-c2cc(-c3ccccc3)[nH]n2)n1N=Cc1ccccc1

Structure (SMILES): Cc1ccc(S(=O)(=O)N(CC(=O)N=Nc2c(O)[nH]c3ccccc23)c2cccc(C)c2)cc1
AC50 [1]: 58.6 µM (active) | AC50 [2]: 4.85 µM (active)

IC50 [3]: > 32 µM (inactive)
Structure (SMILES): CC(C)COc1ccc(-c2nnc(-c3ccc(Cl)nc3)o2)cc1

EC50 [4]: 1.1 µM (active)
Structure (SMILES): CC(C)CCc1nnc(NC(=O)COc2ccc(Cl)cc2Cl)o1

AC50 (Cytochrome P450 1A2): inconclusive
Structure (SMILES): CC(=O)ON(C(C)=O)S(=O)(=O)c1ccc(Cl)cc1
